In patent US8188098B2, “GPR119 receptor agonists” (Hoffmann-La Roche Inc., priority 2008, dated 2012):

Molecular target: T1, GPR119 receptor (Mesocricetus auratus, UniProt A0A1U8CD06)
T1 construct: which endogenously express the GPR119 receptor; host or cells: HIT-T15 hamster pancreatic islet cells
T1 sequence (A0A1U8CD06 1-334): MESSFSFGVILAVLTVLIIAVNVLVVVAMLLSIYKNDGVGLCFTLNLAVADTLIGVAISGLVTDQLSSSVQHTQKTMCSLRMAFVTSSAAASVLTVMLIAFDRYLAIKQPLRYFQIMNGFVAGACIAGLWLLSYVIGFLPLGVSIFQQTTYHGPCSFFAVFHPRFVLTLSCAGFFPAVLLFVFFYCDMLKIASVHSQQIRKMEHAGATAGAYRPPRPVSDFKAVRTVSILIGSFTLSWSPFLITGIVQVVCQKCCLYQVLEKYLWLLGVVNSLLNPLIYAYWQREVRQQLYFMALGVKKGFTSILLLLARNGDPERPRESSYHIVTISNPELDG
Experiment: cAMP assay in HIT-T15 hamster pancreatic islet cells (functional agonist activity)
Format: cell-based
Conditions: HIT-T15 cells endogenously expressing GPR119; 30 min at 25° C.; intracellular cAMP
How it was run: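 HIT-T15 cells (endogenous GPR119), 9000/well, exposed to agonist 30 min at 25° C with 0.5 mM IBMX and 0.5 mg/ml BSA. Lysate cAMP measured by chemiluminescent competitive immunoassay; EC50 from curve fit.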

| Structure (SMILES) | EC50 [µM] |
| --- | --- |
| CC(C)(C)OC(=O)N1CCCC(n2ncc3c(Oc4ccccc4C#N)ncnc32)C1 (stereo not drawn) [Example 90, 3-[4-(2-Cyano-phenoxy)-pyrazolo[3,4-d]pyrimidin-1-yl]-piperidine-1-carboxylic acid tert-butyl ester] | 0.12 |
| CC(C)(C)OC(=O)N1CCC(n2ncc3c(Oc4cccnc4)ncnc32)CC1 [Example 91, 4-[4-(Pyridin-3-yloxy)-pyrazolo[3,4-d]pyrimidin-1-yl]-piperidine-1-carboxylic acid tert-butyl ester] | 1.2 |
| Cc1ncccc1Oc1ncnc2c1cnn2C1CCN(C(=O)OC(C)(C)C)CC1 [Example 92, 4-[4-(2-Methyl-pyridin-3-yloxy)-pyrazolo[3,4-d]pyrimidin-1-yl]-piperidine-1-carboxylic acid tert-butyl ester] | 0.17 |
| COc1ccc(Oc2ncnc3c2cnn3C2CCN(C(=O)OC(C)(C)C)CC2)c(OC)n1 [Example 95, 4-[4-(2,6-Dimethoxy-pyridin-3-yloxy)-pyrazolo[3,4-d]pyrimidin-1-yl]-piperidine-1-carboxylic acid tert-butyl ester] | 0.89 |
| COc1ccc(Oc2ncnc3c2cnn3C2CCN(C(=O)OC(C)(C)C)CC2)cn1 [Example 96, 4-[4-(6-Methoxy-pyridin-3-yloxy)-pyrazolo[3,4-d]pyrimidin-1-yl]-piperidine-1-carboxylic acid tert-butyl ester] | 1.5 |
| Cc1nc(Cl)ccc1Oc1ncnc2c1cnn2C1CCN(C(=O)OC(C)(C)C)CC1 [Example 97, 4-[4-(6-Chloro-2-methyl-pyridin-3-yloxy)-pyrazolo[3,4-d]pyrimidin-1-yl]-piperidine-1-carboxylic acid tert-butyl ester] | 0.53 |
| Cc1nc(S(C)(=O)=O)ccc1Oc1ncnc2c1cnn2C1CCN(C(=O)OC(C)(C)C)CC1 [Example 98, 4-[4-(6-Methanesulfonyl-2-methyl-pyridin-3-yloxy)-pyrazolo[3,4-d]pyrimidin-1-yl]-piperidine-1-carboxylic acid tert-butyl ester] | 0.096 |
| CC(C)(C)OC(=O)N1CCC(n2ncc3c(Oc4cccnc4C#N)ncnc32)CC1 [Example 99, 4-[4-(2-Cyano-pyridin-3-yloxy)-pyrazolo[3,4-d]pyrimidin-1-yl]-piperidine-1-carboxylic acid tert-butyl ester] | 0.2 |
| CC(C)(C)OC(=O)N1CCC(n2ncc3c(Oc4cncc(Cl)c4)ncnc32)CC1 [Example 100, 4-[4-(5-Chloro-pyridin-3-yloxy)-pyrazolo[3,4-d]pyrimidin-1-yl]-piperidine-1-carboxylic acid tert-butyl ester] | 1.8 |
| Cc1nc(-n2cncn2)ccc1Oc1ncnc2c1cnn2C1CCN(C(=O)OC(C)(C)C)CC1 [Example 101, 4-[4-(2-Methyl-6-[1,2,4]triazol-1-yl-pyridin-3-yloxy)-pyrazolo[3,4-d]pyrimidin-1-yl]-piperidine-1-carboxylic acid tert-butyl ester] | 0.36 |
| Cn1nc(Oc2ncnc3c2cnn3C2CCN(C(=O)OC(C)(C)C)CC2)ccc1=O [Example 102, 4-[4-(1-Methyl-6-oxo-1,6-dihydro-pyridazin-3-yloxy)-pyrazolo[3,4-d]pyrimidin-1-yl]-piperidine-1-carboxylic acid tert-butyl ester] | 0.47 |
| CCc1cc(Oc2ncnc3c2cnn3C2CCN(C(=O)OC(C)(C)C)CC2)nc(C)n1 [Example 103, 4-[4-(6-Ethyl-2-methyl-pyrimidin-4-yloxy)-pyrazolo[3,4-d]pyrimidin-1-yl]-piperidine-1-carboxylic acid tert-butyl ester] | 3.4 |
| CCCCOC(=O)N1CCC(n2ncc3c(Oc4cccnc4C)ncnc32)CC1 [Example 104, 4-[4-(2-Methyl-pyridin-3-yloxy)-pyrazolo[3,4-d]pyrimidin-1-yl]-piperidine-1-carboxylic acid butyl ester] | 0.85 |
| CC[C@@H](C)OC(=O)N1CCC(n2ncc3c(Oc4ccc(S(C)(=O)=O)cc4)ncnc32)CC1 [Example 105, 4-[4-(4-Methanesulfonyl-phenoxy)-pyrazolo[3,4-d]pyrimidin-1-yl]-piperidine-1-carboxylic acid (R)-sec-butyl ester] | 0.15 |
| CC(C)COC(=O)N1CCC(n2ncc3c(Oc4ccc(S(C)(=O)=O)cc4)ncnc32)CC1 [Example 106, 4-[4-(4-Methanesulfonyl-phenoxy)-pyrazolo[3,4-d]pyrimidin-1-yl]-piperidine-1-carboxylic acid isobutyl ester] | 0.11 |
| Cc1ncccc1Oc1ncnc2c1cnn2C1CCN(C(=O)OCC(C)C)CC1 [Example 107, 4-[4-(2-Methyl-pyridin-3-yloxy)-pyrazolo[3,4-d]pyrimidin-1-yl]-piperidine-1-carboxylic acid isobutyl ester] | 0.19 |
| CC(C)(C)COC(=O)N1CCC(n2ncc3c(Oc4ccc(S(C)(=O)=O)cc4)ncnc32)CC1 [Example 108, 4-[4-(4-Methanesulfonyl-phenoxy)-pyrazolo[3,4-d]pyrimidin-1-yl]-piperidine-1-carboxylic acid 2,2-dimethyl-propyl ester] | 0.1 |
| CS(=O)(=O)c1ccc(Oc2ncnc3c2cnn3C2CCN(C(=O)OC(CF)CF)CC2)cc1 [Example 109, 4-[4-(4-Methanesulfonyl-phenoxy)-pyrazolo[3,4-d]pyrimidin-1-yl]-piperidine-1-carboxylic acid 2-fluoro-1-fluoromethyl-ethyl ester] | 0.68 |
| CC(OC(=O)N1CCC(n2ncc3c(Oc4ccc(S(C)(=O)=O)cc4)ncnc32)CC1)C(F)(F)F (stereo not drawn) [Example 110, 4-[4-(4-Methanesulfonyl-phenoxy)-pyrazolo[3,4-d]pyrimidin-1-yl]-piperidine-1-carboxylic acid 2,2,2-trifluoro-1-methyl-ethyl ester] | 1 |
| CC(C)(OC(=O)N1CCC(n2ncc3c(Oc4ccc(S(C)(=O)=O)cc4)ncnc32)CC1)C(F)(F)F [Example 111, 4-[4-(4-Methanesulfonyl-phenoxy)-pyrazolo[3,4-d]pyrimidin-1-yl]-piperidine-1-carboxylic acid 2,2,2-trifluoro-1,1-dimethyl-ethyl ester] | 0.05 |
| CS(=O)(=O)c1ccc(Oc2ncnc3c2cnn3C2CCN(C(=O)OC(C(F)(F)F)C(F)(F)F)CC2)cc1 [Example 112, 4-[4-(4-Methanesulfonyl-phenoxy)-pyrazolo[3,4-d]pyrimidin-1-yl]-piperidine-1-carboxylic acid 2,2,2-trifluoro-1-trifluoromethyl-ethyl ester] | 0.5 |
| CS(=O)(=O)c1ccc(Oc2ncnc3c2cnn3C2CCN(C(=O)OCC(F)(F)F)CC2)cc1 [Example 113, 4-[4-(4-Methanesulfonyl-phenoxy)-pyrazolo[3,4-d]pyrimidin-1-yl]-piperidine-1-carboxylic acid 2,2,2-trifluoro-ethyl ester] | 0.16 |
| CC(C)(OC(=O)N1CCC(n2ncc3c(Oc4ccc(S(C)(=O)=O)cc4)ncnc32)CC1)C(Cl)(Cl)Cl [Example 114, 4-[4-(4-Methanesulfonyl-phenoxy)-pyrazolo[3,4-d]pyrimidin-1-yl]-piperidine-1-carboxylic acid 2,2,2-trichloro-1,1-dimethyl-ethyl ester] | 0.044 |
| CS(=O)(=O)c1ccc(Oc2ncnc3c2cnn3C2CCN(C(=O)OCC(Cl)(Cl)Cl)CC2)cc1 [Example 115, 4-[4-(4-Methanesulfonyl-phenoxy)-pyrazolo[3,4-d]pyrimidin-1-yl]-piperidine-1-carboxylic acid 2,2,2-trichloro-ethyl ester] | 0.018 |
